Assay results as given in ChEMBL document CHEMBL4715782, “Multitarget-directed oxoisoaporphine derivatives: Anti-acetylcholinesterase, anti-β-amyloid aggregation and enhanced autophagy activity against Alzheimer's disease” (Bioorg Med Chem, 2016).
Calls of active or inactive are those of the source. The calls are words filed in the database; no cut-off is given here.

What was measured:
[1] = biological target: Acetylcholinesterase (Electrophorus electricus) (UniProt O42275); assay: Mixed type inhibition of electric eel AChE using acetylthiocholine chloride as substrate preincubated for 15 mins followed by substrate addition by reciprocal plot analysis
SH-SY5Y = assay: (§1) Inhibition of amyloid beta42 secretion in human SH-SY5Y cells overexpressing human APP Swedish mutant at 1 uM incubated for 24 hrs by ELISA; format: functional
[2] = as §1; format: functional
Drosophila melanogaster [3] = assay: In vivo inhibition of AChE in Elav-GAL4/UAS-Abeta42 hybrid Drosophila melanogaster assessed as reduction in intracephalic AChE levels by HPLC analysis; format: functional; details: dose 0.1-10 µM
Caenorhabditis elegans = assay: Induction of autophagy in Caenorhabditis elegans BC12921 expressing SQST-1-GFP fusion protein assessed as decrease in fluorescence intensity at 1 uM by microplate reader analysis; format: functional; parameters: scale not given: the % may be the effect or the level left
Drosophila melanogaster [4] = assay: In vivo inhibition of AChE in Elav-GAL4/UAS-Abeta42 hybrid Drosophila melanogaster assessed as reduction in intracephalic AChE levels at 0.1 to 10 uM by HPLC analysis; format: functional; details: dose 0.1-10 µM
Homo sapiens = species: Homo sapiens; assay: Inhibition of self-induced amyloid beta (1 to 42) (unknown origin) aggregation at 10 uM after 48 hrs by thioflavin-T fluorescence method relative to control
Acetylcholinesterase = Acetylcholinesterase (Electrophorus electricus, UniProt O42275); assay: Inhibition of electric eel AChE using acetylthiocholine chloride as substrate incubated for 15 mins by Ellman's method
in vitro = details: PAMPA
Description: Effective permeability of the compound in PBS/ethanol buffer (9:1) at 25 ug/ml after 10 hrs by UV plate reader based PAMPA-BBB assay

Sequence of Acetylcholinesterase (O42275 whole entry): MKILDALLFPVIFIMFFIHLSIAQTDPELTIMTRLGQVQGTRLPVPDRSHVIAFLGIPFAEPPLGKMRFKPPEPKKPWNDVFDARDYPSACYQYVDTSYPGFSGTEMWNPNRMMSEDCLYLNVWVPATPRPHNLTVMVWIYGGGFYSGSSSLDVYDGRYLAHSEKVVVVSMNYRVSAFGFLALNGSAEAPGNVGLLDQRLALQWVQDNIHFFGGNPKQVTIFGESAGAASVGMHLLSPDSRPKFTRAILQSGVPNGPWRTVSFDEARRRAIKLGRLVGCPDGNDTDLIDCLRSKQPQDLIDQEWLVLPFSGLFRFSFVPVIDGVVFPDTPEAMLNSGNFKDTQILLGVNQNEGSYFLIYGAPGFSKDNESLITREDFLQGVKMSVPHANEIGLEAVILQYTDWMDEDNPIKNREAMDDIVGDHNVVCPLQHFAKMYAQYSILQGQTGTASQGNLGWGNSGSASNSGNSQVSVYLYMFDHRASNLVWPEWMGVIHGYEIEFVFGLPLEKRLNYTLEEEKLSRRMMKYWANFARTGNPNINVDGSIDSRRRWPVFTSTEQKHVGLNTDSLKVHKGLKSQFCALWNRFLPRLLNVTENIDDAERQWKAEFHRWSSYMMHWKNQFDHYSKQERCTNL
Sequence of Acetylcholinesterase (Electrophorus electricus) (O42275 24-633 limits assumed): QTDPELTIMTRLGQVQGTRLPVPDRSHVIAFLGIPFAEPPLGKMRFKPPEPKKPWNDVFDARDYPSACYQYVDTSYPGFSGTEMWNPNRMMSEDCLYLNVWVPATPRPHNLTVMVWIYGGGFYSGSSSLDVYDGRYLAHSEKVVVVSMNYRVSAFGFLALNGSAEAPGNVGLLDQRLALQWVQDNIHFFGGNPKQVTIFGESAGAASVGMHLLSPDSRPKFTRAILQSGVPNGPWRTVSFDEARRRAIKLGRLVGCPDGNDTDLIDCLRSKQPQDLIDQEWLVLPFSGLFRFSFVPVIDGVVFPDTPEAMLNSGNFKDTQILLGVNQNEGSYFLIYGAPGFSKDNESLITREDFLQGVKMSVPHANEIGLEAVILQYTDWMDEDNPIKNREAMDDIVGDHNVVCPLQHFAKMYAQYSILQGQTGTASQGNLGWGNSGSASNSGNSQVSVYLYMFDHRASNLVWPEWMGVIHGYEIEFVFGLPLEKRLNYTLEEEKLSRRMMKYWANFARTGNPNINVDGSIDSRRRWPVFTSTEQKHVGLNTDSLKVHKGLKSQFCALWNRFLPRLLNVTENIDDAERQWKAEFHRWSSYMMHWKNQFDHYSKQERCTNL

With `O=C(CCN1CCCCC1)Nc1c(Cl)ccc2c1-c1nccc3cccc(c13)C2=O` the inhibition [1] was “Active”, the inhibition (SH-SY5Y) was “Active” and the inhibition at 1 µM [2] was 46%. For the same molecule, the inhibition (Drosophila melanogaster [3]) was “Dose-dependent effect”, the Activity (Caenorhabditis elegans) was 26.5% and the inhibition (Drosophila melanogaster [4]) was “Active”. For the same molecule, the inhibition (Homo sapiens) was 74.6%, the IC50 (Acetylcholinesterase) was 28.4 nM and the Papp at 10 h, 25 ug/ml (in vitro) was 8.24 ×10⁻⁶ cm/s.

In the case of `O=C(CN1CCCCC1)Nc1c(Cl)ccc2c1-c1nccc3cccc(c13)C2=O`, the inhibition (SH-SY5Y) is reported as “Active”, the inhibition (Drosophila melanogaster [3]) is reported as “Dose-dependent effect” and the inhibition (Homo sapiens) is reported as 51.3%. For the same molecule, the IC50 (Acetylcholinesterase) was 32.1 nM and the Papp at 10 h, 25 ug/ml (in vitro) was 1.36 ×10⁻⁶ cm/s.

In the case of `O=C(CCCN1CCCCC1)Nc1cccc2c1C(=O)c1cccc3ccnc-2c13`, the inhibition (SH-SY5Y) is reported as “Active”, the inhibition (Drosophila melanogaster [3]) is reported as “Dose-dependent effect” and the inhibition (Homo sapiens) is reported as 61.3%. For the same molecule, the IC50 (Acetylcholinesterase) was 187 nM and the Papp at 10 h, 25 ug/ml (in vitro) was 1.52 ×10⁻⁶ cm/s.

For `O=C(CCCCN1CCCCC1)Nc1cccc2c1C(=O)c1cccc3ccnc-2c13`, the inhibition (Drosophila melanogaster [3]) was “Dose-dependent effect”, the inhibition (Homo sapiens) was 52.5% and the IC50 (Acetylcholinesterase) was 978 nM. It also gave a Papp at 10 h, 25 ug/ml (in vitro) of 6.59 ×10⁻⁶ cm/s.

In the case of `O=C(CCN1CCCCC1)Nc1cccc2c1C(=O)c1cccc3ccnc-2c13`, the inhibition [1] is reported as “Active”, the inhibition (SH-SY5Y) is reported as “Active” and the inhibition (Drosophila melanogaster [3]) is reported as “Dose-dependent effect”. The Activity (Caenorhabditis elegans) was 28%, the inhibition (Drosophila melanogaster [4]) was “Active” and the inhibition (Homo sapiens) was 76.1%. For the same molecule, the IC50 (Acetylcholinesterase) was 80.8 nM and the Papp at 10 h, 25 ug/ml (in vitro) was 2.54 ×10⁻⁶ cm/s.

`COc1cc(/C=C/C(=O)CC(=O)/C=C/c2ccc(O)c(OC)c2)ccc1O` gave an inhibition (Homo sapiens) of 45.1%.

In the case of `O=C(CCCCCN1CCCCC1)Nc1cccc2c1C(=O)c1cccc3ccnc-2c13`, the inhibition (Drosophila melanogaster [3]) is reported as “Dose-dependent effect”, the inhibition (Homo sapiens) is reported as 55.7% and the IC50 (Acetylcholinesterase) is reported as 472 nM. It also gave a Papp at 10 h, 25 ug/ml (in vitro) of 4.92 ×10⁻⁶ cm/s.

In the case of `O=C(CCCN1CCCCC1)Nc1c(Cl)ccc2c1-c1nccc3cccc(c13)C2=O`, the inhibition (Drosophila melanogaster [3]) is reported as “Dose-dependent effect”, the inhibition (Drosophila melanogaster [4]) is reported as “Active” and the inhibition (Homo sapiens) is reported as 78.4%. The IC50 (Acetylcholinesterase) was 148 nM and the Papp at 10 h, 25 ug/ml (in vitro) was 2.44 ×10⁻⁶ cm/s.

With `O=C(CN1CCCCC1)Nc1cccc2c1C(=O)c1cccc3ccnc-2c13` the inhibition (Drosophila melanogaster [3]) was “Dose-dependent effect”, the inhibition (Homo sapiens) was 57.6% and the IC50 (Acetylcholinesterase) was 156 nM. For the same molecule, the Papp at 10 h, 25 ug/ml (in vitro) was 1.63 ×10⁻⁶ cm/s.

With `O=C(CCCCN1CCCCC1)Nc1c(Cl)ccc2c1-c1nccc3cccc(c13)C2=O` the inhibition (Drosophila melanogaster [3]) was “Dose-dependent effect”, the inhibition (Homo sapiens) was 71.2% and the IC50 (Acetylcholinesterase) was 1800 nM. For the same molecule, the Papp at 10 h, 25 ug/ml (in vitro) was 1.74 ×10⁻⁶ cm/s.

With `O=C(CCCCCN1CCCCC1)Nc1c(Cl)ccc2c1-c1nccc3cccc(c13)C2=O` the inhibition (Drosophila melanogaster [3]) was “Dose-dependent effect”, the inhibition (Homo sapiens) was 67.7% and the IC50 (Acetylcholinesterase) was 380 nM. It also gave a Papp at 10 h, 25 ug/ml (in vitro) of 2.72 ×10⁻⁶ cm/s.
